Assay results: ChEMBL document CHEMBL1134862, “Rational design of 4,5-disubstituted-5,7-dihydro-pyrrolo[2,3-d]pyrimidin-6-ones as a novel class of inhibitors of epidermal growth factor receptor (EGF-R) and Her2(p185(erbB)) tyrosine kinases” (Bioorg Med Chem Lett, 2002)

Key:
[1] = molecular target: Vascular endothelial growth factor receptor 2 (Homo sapiens, UniProt P35968); experiment: Inhibition of tyrosine phosphorylation in cells expressing human VEGFR2 (Flk-1/KDR) kinase
[2] = molecular target: T1, Epidermal growth factor receptor (Homo sapiens, UniProt P00533); experiment: Inhibition of autophosphorylation of human epidermal growth factor-receptor (EGF-R) expressed in A431 cells; assay type: functional, cell-based, A-431
[3] = molecular target: Receptor tyrosine-protein kinase erbB-2 (Homo sapiens, UniProt P04626); experiment: Inhibition of autophosphorylation of human Her (p185erbB) tyrosine kinase expressed in SKOV-3 cells; assay type: functional, cell-based, SK-OV-3
[4] = molecular target: Platelet-derived growth factor receptor beta (Homo sapiens, UniProt P09619); experiment: Inhibitory activity towards tyrosine phosphorylation of PDGF-receptor beta kinase
[5] = molecular target: T1, Epidermal growth factor receptor; experiment: Inhibitory activity towards tyrosine phosphorylation for the epidermal growth factor-receptor kinase

Chain of Vascular endothelial growth factor receptor 2 (P35968 whole entry): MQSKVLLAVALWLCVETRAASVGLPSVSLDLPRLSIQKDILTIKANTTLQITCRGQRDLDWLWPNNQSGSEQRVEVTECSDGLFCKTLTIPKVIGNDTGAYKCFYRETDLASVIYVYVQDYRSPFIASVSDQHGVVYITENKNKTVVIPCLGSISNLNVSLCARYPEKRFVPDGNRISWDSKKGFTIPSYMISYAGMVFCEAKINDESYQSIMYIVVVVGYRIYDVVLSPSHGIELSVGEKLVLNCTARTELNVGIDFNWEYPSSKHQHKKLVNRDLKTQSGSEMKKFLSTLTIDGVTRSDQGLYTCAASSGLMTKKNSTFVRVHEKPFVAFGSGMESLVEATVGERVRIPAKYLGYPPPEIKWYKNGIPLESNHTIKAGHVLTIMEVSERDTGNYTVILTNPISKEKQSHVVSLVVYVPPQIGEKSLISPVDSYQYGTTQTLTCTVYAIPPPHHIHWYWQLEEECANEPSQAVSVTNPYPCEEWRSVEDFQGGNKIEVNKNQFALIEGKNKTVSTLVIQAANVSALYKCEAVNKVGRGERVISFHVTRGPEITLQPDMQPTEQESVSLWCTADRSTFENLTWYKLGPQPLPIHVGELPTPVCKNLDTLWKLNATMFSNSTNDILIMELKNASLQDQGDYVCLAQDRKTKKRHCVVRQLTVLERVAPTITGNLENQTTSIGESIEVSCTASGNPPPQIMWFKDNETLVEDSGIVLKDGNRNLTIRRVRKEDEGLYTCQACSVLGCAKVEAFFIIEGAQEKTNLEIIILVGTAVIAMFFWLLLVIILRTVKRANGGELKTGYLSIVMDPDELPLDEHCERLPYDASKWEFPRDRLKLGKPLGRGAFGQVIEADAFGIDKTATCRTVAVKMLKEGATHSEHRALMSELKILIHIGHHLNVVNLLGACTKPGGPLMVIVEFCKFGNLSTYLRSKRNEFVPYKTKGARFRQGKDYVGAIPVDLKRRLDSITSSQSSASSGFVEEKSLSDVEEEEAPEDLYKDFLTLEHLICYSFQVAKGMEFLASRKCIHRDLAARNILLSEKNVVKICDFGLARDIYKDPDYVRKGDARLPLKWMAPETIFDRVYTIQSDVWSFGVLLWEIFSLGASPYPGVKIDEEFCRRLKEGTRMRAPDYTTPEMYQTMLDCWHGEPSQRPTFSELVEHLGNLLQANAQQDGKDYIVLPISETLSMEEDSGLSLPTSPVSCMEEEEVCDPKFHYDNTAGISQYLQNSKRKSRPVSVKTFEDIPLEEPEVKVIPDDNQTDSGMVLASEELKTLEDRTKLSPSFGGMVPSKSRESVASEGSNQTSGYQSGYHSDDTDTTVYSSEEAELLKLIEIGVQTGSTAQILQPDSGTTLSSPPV
Chain of Platelet-derived growth factor receptor beta (P09619 whole entry): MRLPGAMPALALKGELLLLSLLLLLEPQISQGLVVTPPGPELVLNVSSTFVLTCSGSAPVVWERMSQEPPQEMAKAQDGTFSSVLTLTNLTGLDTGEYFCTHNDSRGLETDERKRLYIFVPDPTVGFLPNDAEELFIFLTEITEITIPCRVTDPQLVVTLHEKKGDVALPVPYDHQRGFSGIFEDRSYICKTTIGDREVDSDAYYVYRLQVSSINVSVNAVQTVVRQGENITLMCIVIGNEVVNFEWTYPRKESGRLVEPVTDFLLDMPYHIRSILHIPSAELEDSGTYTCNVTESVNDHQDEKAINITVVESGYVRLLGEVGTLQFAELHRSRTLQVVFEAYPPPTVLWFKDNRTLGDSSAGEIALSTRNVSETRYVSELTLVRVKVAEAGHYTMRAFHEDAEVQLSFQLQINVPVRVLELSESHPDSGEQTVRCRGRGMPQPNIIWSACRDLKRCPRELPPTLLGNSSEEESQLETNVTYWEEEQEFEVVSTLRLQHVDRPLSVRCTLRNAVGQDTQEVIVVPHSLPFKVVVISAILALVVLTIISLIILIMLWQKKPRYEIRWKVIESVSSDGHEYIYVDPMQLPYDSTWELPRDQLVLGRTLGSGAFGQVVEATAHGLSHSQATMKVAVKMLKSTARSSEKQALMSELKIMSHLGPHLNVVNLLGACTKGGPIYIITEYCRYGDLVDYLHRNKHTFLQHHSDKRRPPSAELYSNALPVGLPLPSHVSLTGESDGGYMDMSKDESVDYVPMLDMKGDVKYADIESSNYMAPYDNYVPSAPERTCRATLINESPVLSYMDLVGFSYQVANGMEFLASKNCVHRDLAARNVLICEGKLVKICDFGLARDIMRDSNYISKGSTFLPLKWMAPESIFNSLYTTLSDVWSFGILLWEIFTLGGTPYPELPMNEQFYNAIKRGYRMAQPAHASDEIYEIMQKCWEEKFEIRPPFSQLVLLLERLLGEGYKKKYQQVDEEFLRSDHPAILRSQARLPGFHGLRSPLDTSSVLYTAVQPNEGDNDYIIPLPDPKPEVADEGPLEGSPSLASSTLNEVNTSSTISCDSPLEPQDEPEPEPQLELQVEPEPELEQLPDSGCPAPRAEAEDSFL
T1 sequence (P00533 whole entry): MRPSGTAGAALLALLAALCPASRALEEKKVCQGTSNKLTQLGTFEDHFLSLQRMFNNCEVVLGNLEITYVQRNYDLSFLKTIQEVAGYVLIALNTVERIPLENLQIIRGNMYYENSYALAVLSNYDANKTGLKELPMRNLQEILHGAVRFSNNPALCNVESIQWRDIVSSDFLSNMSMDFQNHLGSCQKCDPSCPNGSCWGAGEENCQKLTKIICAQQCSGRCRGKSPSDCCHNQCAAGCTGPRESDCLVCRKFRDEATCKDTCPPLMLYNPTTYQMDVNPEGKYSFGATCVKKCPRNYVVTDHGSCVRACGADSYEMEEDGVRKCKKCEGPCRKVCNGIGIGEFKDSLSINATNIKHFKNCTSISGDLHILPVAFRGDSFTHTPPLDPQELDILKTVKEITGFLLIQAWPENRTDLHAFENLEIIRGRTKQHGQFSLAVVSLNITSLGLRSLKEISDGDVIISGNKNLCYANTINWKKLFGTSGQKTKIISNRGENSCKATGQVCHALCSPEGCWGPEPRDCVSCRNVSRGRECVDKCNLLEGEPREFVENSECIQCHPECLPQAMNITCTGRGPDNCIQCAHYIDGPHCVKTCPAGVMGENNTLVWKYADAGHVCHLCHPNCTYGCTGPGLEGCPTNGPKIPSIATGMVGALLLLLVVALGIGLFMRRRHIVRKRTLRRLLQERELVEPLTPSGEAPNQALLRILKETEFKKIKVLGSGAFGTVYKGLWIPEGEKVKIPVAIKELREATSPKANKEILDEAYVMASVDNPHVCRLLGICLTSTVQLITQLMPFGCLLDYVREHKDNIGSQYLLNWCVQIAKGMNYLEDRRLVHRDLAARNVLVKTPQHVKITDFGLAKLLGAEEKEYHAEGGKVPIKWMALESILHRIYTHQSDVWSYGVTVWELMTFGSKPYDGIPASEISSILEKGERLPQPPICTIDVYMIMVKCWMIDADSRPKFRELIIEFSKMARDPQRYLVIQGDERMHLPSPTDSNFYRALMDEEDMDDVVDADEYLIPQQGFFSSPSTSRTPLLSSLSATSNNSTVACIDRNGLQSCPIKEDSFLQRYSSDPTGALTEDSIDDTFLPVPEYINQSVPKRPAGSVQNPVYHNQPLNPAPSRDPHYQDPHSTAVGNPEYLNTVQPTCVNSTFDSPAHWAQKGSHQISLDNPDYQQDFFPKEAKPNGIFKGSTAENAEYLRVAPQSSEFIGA
Chain of Receptor tyrosine-protein kinase erbB-2 (P04626 whole entry): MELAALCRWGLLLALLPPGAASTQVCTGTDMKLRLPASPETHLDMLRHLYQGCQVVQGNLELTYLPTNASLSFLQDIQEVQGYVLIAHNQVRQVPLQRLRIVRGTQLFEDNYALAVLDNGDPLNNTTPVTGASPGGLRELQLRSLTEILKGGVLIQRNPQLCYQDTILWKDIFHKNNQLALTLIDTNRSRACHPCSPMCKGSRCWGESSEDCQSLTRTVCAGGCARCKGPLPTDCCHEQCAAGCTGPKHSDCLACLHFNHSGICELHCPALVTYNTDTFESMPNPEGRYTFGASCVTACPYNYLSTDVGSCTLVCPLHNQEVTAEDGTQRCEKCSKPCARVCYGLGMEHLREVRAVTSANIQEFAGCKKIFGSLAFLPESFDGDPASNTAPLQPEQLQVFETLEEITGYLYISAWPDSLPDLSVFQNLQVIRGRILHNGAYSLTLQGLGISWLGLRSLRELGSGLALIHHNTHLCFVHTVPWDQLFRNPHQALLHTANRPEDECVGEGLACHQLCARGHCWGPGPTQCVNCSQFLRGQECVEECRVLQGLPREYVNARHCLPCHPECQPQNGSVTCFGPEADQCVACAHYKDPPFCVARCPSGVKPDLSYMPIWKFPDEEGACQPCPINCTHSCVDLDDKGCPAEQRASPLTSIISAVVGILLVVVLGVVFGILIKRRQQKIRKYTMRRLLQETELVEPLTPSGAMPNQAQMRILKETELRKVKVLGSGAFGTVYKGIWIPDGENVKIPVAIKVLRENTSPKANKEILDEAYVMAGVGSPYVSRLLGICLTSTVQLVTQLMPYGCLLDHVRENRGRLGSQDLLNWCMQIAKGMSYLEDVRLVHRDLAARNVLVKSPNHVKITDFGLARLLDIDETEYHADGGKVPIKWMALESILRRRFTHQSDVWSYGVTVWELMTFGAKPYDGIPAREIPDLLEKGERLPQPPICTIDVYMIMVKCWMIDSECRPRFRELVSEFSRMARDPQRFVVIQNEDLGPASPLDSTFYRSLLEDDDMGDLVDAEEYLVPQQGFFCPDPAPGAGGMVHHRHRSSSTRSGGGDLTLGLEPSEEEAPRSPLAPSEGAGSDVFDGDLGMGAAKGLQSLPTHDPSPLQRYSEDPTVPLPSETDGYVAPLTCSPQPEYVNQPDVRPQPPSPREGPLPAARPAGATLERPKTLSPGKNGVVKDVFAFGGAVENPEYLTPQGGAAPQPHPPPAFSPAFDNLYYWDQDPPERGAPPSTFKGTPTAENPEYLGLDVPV

Row | Structure (SMILES) | IC50 [1] [nM] | IC50 [2] [nM] | IC50 [3] [nM] | IC50 [4] [nM] | IC50 [5] [nM]
1 | Cc1cc(C(=O)NCCN2CCOCC2)[nH]c1/C=C1\C(=O)Nc2ncnc(Nc3ccc4c(ccn4Cc4ccccc4)c3)c21 | 3470 | 200 | 40 | > 100000 | 1.1
2 | O=C1Nc2ncnc(Nc3ccc(F)c(Cl)c3)c2/C1=C/c1ccc(C(=O)NCCN2CCOCC2)[nH]1 | > 20000 | – | – | > 100000 | 22
3 | CCN(CC)CC(O)CNC(=O)c1cc(C)c(/C=C2\C(=O)Nc3ncnc(Nc4ccc(F)c(Cl)c4)c32)[nH]1 (stereo not drawn) | 360 | – | – | – | 0.45
4 | Cc1c(C(=O)N2CCN(C)CC2)c[nH]c1/C=C1\C(=O)Nc2ncnc(Nc3ccc(F)c(Cl)c3)c21 | > 20000 | – | – | > 20000 | 410
5 | Cc1cc(C(=O)O)[nH]c1/C=C1\C(=O)Nc2ncnc(Nc3ccc(F)c(Cl)c3)c21 | 8920 | > 5000 | > 5000 | > 20000 | 29
6 | Cc1cc(C(=O)N2CCN(C)CC2)[nH]c1/C=C1\C(=O)Nc2ncnc(Nc3ccc(F)c(Cl)c3)c21 | > 20000 | 100 | 200 | > 20000 | 2.8
7 | Cc1[nH]c(/C=C2\C(=O)Nc3ncnc(Nc4ccc(F)c(Cl)c4)c32)c(C)c1CCC(=O)O | > 20000 | – | – | > 20000 | 180
8 | Cc1cc(CCC(=O)O)[nH]c1/C=C1\C(=O)Nc2ncnc(Nc3ccc(F)c(Cl)c3)c21 | > 20000 | – | – | > 20000 | 4.7
9 | CCN(CC)CCNC(=O)c1cc(C)c(/C=C2\C(=O)Nc3ncnc(Nc4ccc(Cl)cc4F)c32)[nH]1 | 40 | 500 | – | 5620 | 450
10 | CCN(CC)CCNC(=O)c1c(C)[nH]c(/C=C2\C(=O)Nc3ncnc(Nc4ccc(F)c(Cl)c4)c32)c1C | 3470 | – | – | > 20000 | 200
11 | Cc1cc(C(=O)NCCN2CCOCC2)[nH]c1/C=C1\C(=O)N(C)c2ncnc(Nc3ccc(F)c(Cl)c3)c21 | 10100 | – | – | > 20000 | 5310
12 | Cc1cc(C(=O)N2CCOCC2)[nH]c1/C=C1\C(=O)Nc2ncnc(Nc3ccc4c(c3)CCC4)c21 | 3460 | 5000 | > 5000 | > 20000 | 1410
13 | CCN1CCN(C(=O)c2cc(C)c(/C=C3\C(=O)Nc4ncnc(Nc5ccc(F)c(Cl)c5)c43)[nH]2)CC1 | > 20000 | 200 | 100 | > 20000 | 13
14 | Cc1cc(C(=O)N2CCOCC2)[nH]c1/C=C1\C(=O)Nc2ncnc(Nc3ccc4c(cnn4Cc4ccccc4)c3)c21 | 2100 | 100 | 100 | > 10000 | 1.8
15 | Cc1cc(C(=O)N2CCOCC2)[nH]c1/C=C1\C(=O)Nc2ncnc(Nc3ccc4c(ccn4Cc4ccccc4)c3)c21 | 2050 | 100 | 100 | > 20000 | 4.5
16 | Cc1cc(C(=O)N2CCOCC2)[nH]c1/C=C1\C(=O)Nc2ncnc(N3CCCCC3)c21 | > 20000 | – | – | > 20000 | > 20000
17 | Cc1cc(C)c(/C=C2\C(=O)Nc3ncnc(Nc4ccc(F)c(Cl)c4)c32)[nH]1 | 16500 | 300 | 300 | > 100000 | 41
18 | Cc1cc(C(=O)N2CC(C)NC(C)C2)[nH]c1/C=C1\C(=O)Nc2ncnc(Nc3ccc(F)c(Cl)c3)c21 (stereo not drawn) | 1630 | – | 500 | > 20000 | –
19 | CCN(CC)CCNC(=O)c1cc(C)c(/C=C2\C(=O)Nc3ncnc(Nc4ccc(F)c(Cl)c4)c32)[nH]1 | 300 | 200 | 200 | – | 1.2
20 | Cc1cc(C(=O)NCCN2CCOCC2)[nH]c1/C=C1\C(=O)Nc2ncnc(Nc3ccc(F)c(Cl)c3)c21 | > 20000 | – | 100 | > 100000 | –
21 | Cc1cc(C)c(/C=C2\C(=O)N(C)c3ncnc(Nc4ccc(F)c(Cl)c4)c32)[nH]1 | 5820 | – | – | > 20000 | > 20000
22 | Cc1cc(C(=O)N2CCOCC2)[nH]c1/C=C1\C(=O)Nc2ncnc(Nc3ccc(F)c(Cl)c3)c21 | > 20000 | 40 | 400 | > 20000 | 170
23 | Cc1cc(/C=C2\C(=O)Nc3ncnc(Nc4ccc(F)c(Cl)c4)c32)[nH]c1C(=O)N1CCN(C)CC1 | > 20000 | – | – | > 20000 | 210
24 | C#Cc1cccc(Nc2ncnc3c2/C(=C/c2[nH]c(C(=O)NCCN4CCOCC4)cc2C)C(=O)N3)c1 | > 20000 | 40 | 40 | > 20000 | 18
